Several values for one entry are separate records, joined by “and”; a condition that tells them apart may be missing. Identical values can stand only once. Toxic doses and inconclusive results are not listed. How the source made its calls: active means survival T/C of 150% or more; inactive means T/C below 125% in these data.
Test system: P388 leukemia ip, CD2F1 mice, survival T/C
Test: NCI In Vivo Anticancer Drug Screen. Data for tumor model P388 Leukemia (intraperitoneal) in CD2F1 (CDF1) mice
Settings: endpoint: median survival time, higher = longer survival
How it was run: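 Mice carrying the transplanted tumor received test compound or vehicle. Survival was recorded in each group, and the value is the treated-group measurement divided by that of the vehicle-treated control group.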

[1] = dose: 50.0 mg/kg/injection, schedule: Q01DX009 (ip), vehicle: saline with Tween-80
[2] = dose: 50.0 mg/kg/injection, schedule: Q01DX009 (ip), vehicle: saline
[3] = dose: 100.0 mg/kg/injection, schedule: Q01DX009 (ip), vehicle: saline
[4] = dose: 200.0 mg/kg/injection, schedule: Q01DX009 (ip), vehicle: saline
[5] = dose: 6.25 mg/kg/injection, schedule: Q01DX009 (ip), vehicle: saline
[6] = dose: 12.5 mg/kg/injection, schedule: Q01DX009 (ip), vehicle: saline
[7] = dose: 25.0 mg/kg/injection, schedule: Q01DX009 (ip), vehicle: saline
[8] = dose: 50.0 mg/kg/injection, schedule: Q01DX005 (ip), vehicle: Klucel (hydroxypropylcellulose) (HPC)
[9] = dose: 100.0 mg/kg/injection, schedule: Q01DX005 (ip), vehicle: Klucel (hydroxypropylcellulose) (HPC)
[10] = dose: 200.0 mg/kg/injection, schedule: Q01DX005 (ip), vehicle: Klucel (hydroxypropylcellulose) (HPC)
[11] = dose: 60.0 mg/kg/injection, schedule: Q01DX005 (ip), vehicle: saline with Tween-80
[12] = dose: 120.0 mg/kg/injection, schedule: Q01DX005 (ip), vehicle: saline with Tween-80
[13] = dose: 240.0 mg/kg/injection, schedule: Q01DX005 (ip), vehicle: saline with Tween-80
[14] = dose: 25.0 mg/kg/injection, schedule: Q01DX001 (ip), vehicle: saline with Tween-80
[15] = dose: 50.0 mg/kg/injection, schedule: Q01DX001 (ip), vehicle: saline with Tween-80
[16] = dose: 100.0 mg/kg/injection, schedule: Q01DX001 (ip), vehicle: saline with Tween-80

Measured: T/C

Nc1ccn(COCCOCc2ccccc2)c(=O)n1
inactive: dose: 100.0 mg/kg/injection, schedule: Q04DX002 (ip), vehicle: Klucel (hydroxypropylcellulose) (HPC) 98 % of control | dose: 200.0 mg/kg/injection, schedule: Q04DX002 (ip), vehicle: Klucel (hydroxypropylcellulose) (HPC) 100 % of control | dose: 400.0 mg/kg/injection, schedule: Q04DX002 (ip), vehicle: Klucel (hydroxypropylcellulose) (HPC) 99 % of control

CCCCCCCCCCC(N)P(=O)(O)O (configuration not stated)
inactive: dose: 12.5 mg/kg/injection, schedule: Q01DX009 (ip), vehicle: saline with Tween-80 104 % of control | dose: 25.0 mg/kg/injection, schedule: Q01DX009 (ip), vehicle: saline with Tween-80 100 % of control | [1] 100 % of control

CCOC(=O)C1CC(C)CC1=O (configuration not stated)
inactive: [2] 96 % of control | [3] 98 % of control | [4] 102 % of control

c1ccc(-c2cc[n+]3c4c2ccc2c(-c5ccccc5)cc[n+](c24)CC3)cc1
inactive: [5] 99 % of control | [6] 98 % of control and 100 % of control | [7] 104 % of control and 117 % of control

CCOC(=O)c1ccccc1N
inactive: dose: 25.0 mg/kg/injection, schedule: Q01DX005 (ip), vehicle: saline with Tween-80 100 % of control | dose: 50.0 mg/kg/injection, schedule: Q01DX005 (ip), vehicle: saline with Tween-80 105 % of control | dose: 100.0 mg/kg/injection, schedule: Q01DX005 (ip), vehicle: saline with Tween-80 99 % of control | dose: 200.0 mg/kg/injection, schedule: Q01DX005 (ip), vehicle: saline with Tween-80 100 % of control

CCCCCCCCS(=O)(=O)OCCCCOS(=O)(=O)CCCCCCCC
inactive: dose: 31.25 mg/kg/injection, schedule: Q01DX005 (ip), vehicle: Klucel (hydroxypropylcellulose) (HPC) 103 % of control | dose: 62.5 mg/kg/injection, schedule: Q01DX005 (ip), vehicle: Klucel (hydroxypropylcellulose) (HPC) 103 % of control | dose: 125.0 mg/kg/injection, schedule: Q01DX005 (ip), vehicle: Klucel (hydroxypropylcellulose) (HPC) 103 % of control

CNC(=O)OCc1cnc2ccc(OC)cc2c1COC(=O)NC
inactive: [8] 92 % of control | [9] 99 % of control | [10] 102 % of control

O=S(=O)(O)O.[O]=[V]
inactive: [5] 90 % of control | [6] 86 % of control | dose: 12.5 mg/kg/injection, schedule: Q04DX003 (ip), vehicle: saline 100 % of control | [7] 90 % of control | dose: 25.0 mg/kg/injection, schedule: Q04DX003 (ip), vehicle: saline 100 % of control

CCO/C=C\Br
inactive: [11] 105 % of control | [12] 99 % of control | [13] 100 % of control

Cn1c2cc(F)ccc2c(=O)c2c(O)cc3c(c21)C=CC(C)(C)O3
inactive: [8] 94 % of control | [9] 92 % of control | [10] 94 % of control

O=C(OC(c1ccccc1)c1ccccc1)c1ccc([N+](=O)[O-])cc1
inactive: [1] 101 % of control | dose: 100.0 mg/kg/injection, schedule: Q01DX009 (ip), vehicle: saline with Tween-80 106 % of control | dose: 200.0 mg/kg/injection, schedule: Q01DX009 (ip), vehicle: saline with Tween-80 108 % of control

COc1ccc2c(=O)c3cc([N+](=O)[O-])ccc3n(C)c2c1
inactive: dose: 12.5 mg/kg/injection, schedule: Q01DX001 (ip), vehicle: saline with Tween-80 100 % of control | [14] 97 % of control | [15] 94 % of control | [16] 94 % of control

CC(C)NCCCNC(=S)C(=S)NCCCNC(C)C
inactive: [8] 100 % of control | [9] 94 % of control

COc1ccc(C(=O)NCCN2CCN3Cc4[nH]c5ccccc5c4CC3C2)cc1 (configuration not stated)
inactive: [14] 95 % of control | [15] 97 % of control | [16] 95 % of control and 98 % of control

O=C1CSC(c2ccccc2Cl)N1c1nncs1 (configuration not stated)
inactive: [11] 103 % of control | [12] 98 % of control | [13] 104 % of control

CSc1nc2[nH]cnc(=S)c2[nH]1
inactive: dose: 6.25 mg/kg/injection, schedule: Q04DX003 (ip), vehicle: saline with Tween-80 90 % of control | dose: 12.5 mg/kg/injection, schedule: Q04DX003 (ip), vehicle: saline with Tween-80 90 % of control | dose: 25.0 mg/kg/injection, schedule: Q04DX003 (ip), vehicle: saline with Tween-80 109 % of control

NC1CCCC1C(=O)O (configuration not stated)
inactive: [2] 96 % of control | [3] 100 % of control | [4] 102 % of control

CC(C)(O)c1cc(=O)n(-c2ccccc2)[nH]1
inactive: [8] 102 % of control | [9] 101 % of control | [10] 105 % of control

N=C(N)SCc1ccc(CSC(=N)N)s1
inactive: dose: 7.5 mg/kg/injection, schedule: Q01DX009 (ip), vehicle: saline 107 % of control | dose: 15.0 mg/kg/injection, schedule: Q01DX009 (ip), vehicle: saline 101 % of control | dose: 30.0 mg/kg/injection, schedule: Q01DX009 (ip), vehicle: saline 117 % of control

C/C=C/C(C)C1OC1(C)C(O)C1COC(=O)C(O)C(OC)C(C)C(=O)C(C)C(O)/C(C)=C/C(C)C(=O)CC(O)C(C)C1=O (configuration not stated)
inactive: dose: 0.39 micrograms/kg/injection, schedule: Q01DX005 (ip), vehicle: saline 106 % of control | dose: 0.78 micrograms/kg/injection, schedule: Q01DX005 (ip), vehicle: saline 119 % of control | dose: 1.56 micrograms/kg/injection, schedule: Q01DX005 (ip), vehicle: saline 123 % of control | dose: 3.12 micrograms/kg/injection, schedule: Q01DX005 (ip), vehicle: saline 119 % of control | dose: 6.25 micrograms/kg/injection, schedule: Q01DX005 (ip), vehicle: saline 113 % of control and 123 % of control

CS(=O)(=O)N/N=C1/C=C2C/C(=N\NS(C)(=O)=O)C=C2C1
inactive: [8] 92 % of control | [9] 96 % of control | [10] 95 % of control

CCOC(=O)C1=C(Nc2ccc(F)cc2)C(=O)N(C(C)(C)C)C1
inactive: [11] 100 % of control | [12] 106 % of control | [13] 93 % of control

Nc1ccc(-c2c3ccccc3nc3cc(N)ccc23)cc1
inactive: dose: 50.0 mg/kg/injection, schedule: Q01DX005 (ip), vehicle: saline 118 % of control | dose: 100.0 mg/kg/injection, schedule: Q01DX005 (ip), vehicle: saline 115 % of control

COc1cc2c(N)nc(N3CCN(C(=O)OCC(C)(C)O)CC3)nc2c(OC)c1OC
inactive: dose: 50.0 mg/kg/injection, schedule: Q01DX005 (ip), vehicle: suspension in saline 95 % of control | dose: 100.0 mg/kg/injection, schedule: Q01DX005 (ip), vehicle: suspension in saline 100 % of control | dose: 200.0 mg/kg/injection, schedule: Q01DX005 (ip), vehicle: suspension in saline 113 % of control

CC(=O)O[C@H]1C(=O)[C@]2(C)[C@@H](OC(C)=O)CC3OC[C@@]3(OC(C)=O)[C@H]2[C@H](OC(=O)c2ccccc2)[C@]2(O)C[C@H](OC(=O)[C@H](O)[C@@H](NC(=O)c3ccccc3)c3ccccc3)C(C)=C1C2(C)C (some centres not stated)
inactive: dose: 2.5 mg/kg/injection, schedule: Q01DX005 (ip), vehicle: DMSO 100 % of control | dose: 5.0 mg/kg/injection, schedule: Q01DX005 (ip), vehicle: DMSO 111 % of control

CCNc1nn2ccccc2c1/C=C(/C#N)C(=O)OCC
inactive: [14] 94 % of control | [15] 91 % of control | [16] 91 % of control | dose: 200.0 mg/kg/injection, schedule: Q01DX001 (ip), vehicle: saline with Tween-80 91 % of control

Source: PubChem BioAssay AID330 (DTP/NCI, 2004)
